Broadly, the MIC is the smallest concentration in the dilution series that meets the test's criterion for growth inhibition.

SMILES strings stand for the structures.

In the first assay the test system is Escherichia coli (ATCC25922) or Staphylococcus aureus (ATCC25923). Nature of the assay: Antibacterial MIC, microdilution method in Mueller-Hinton medium. In kind it is cell-based. To be noted: Escherichia coli, 18 h, MIC in E. coli or S. aureus; two-fold serial dilutions 64 to 0.5 μg/ml in duplicate; 18 hours of incubation at 35° C.; read-out: Potency (MIC). Summed up:
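Two-fold serial dilutions from 64 to 0.5 μg/ml, in duplicate, by broth microdilution in Mueller-Hinton medium (NCCLS M7-A5). MIC taken as the lowest concentration preventing visible growth after 18 h at 35° C.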
A general note: Dilution methods test growth across graded concentrations, often in twofold steps.
As for `COc1cc(Nc2nc(N3CCCCC3)nc(N3CCCCC3)n2)ccc1NC(=O)c1ccc(Cl)cc1O.Cl` [N-[4-(4-chlorro-2-hydroxy-benzoylamino)-3-methoxy-phenyl]-4,6-Bis-((3R,5S)-3,5-diamino-piperidin-1-yl)-[1,3,5]triazine-2-amine], the MIC was less than 16 µg/mL.

For `CCOc1ccc(C(=O)Nc2ccc(Nc3nc(N4CCCCC4)nc(N4CCCCC4)n3)cc2O)cc1.Cl` [N-[4-(4-ethoxy-benzoylamino)-3-hydroxy-phenyl]-4,6-Bis-((3R,5S)-3,5-diamino-piperidin-1-yl)-1,3,5]triazine-2-amine], the MIC was less than 16 µg/mL.

With `COc1ccc(Nc2ccc(Nc3nc(N4C[C@H](N)C[C@H](N)C4)nc(N4C[C@H](N)C[C@H](N)C4)n3)cc2)cc1` [N-[4-(4-methoxy-phenylamino)-phenyl]-4,6-Bis-((3R,5S)-3,5-diamino-piperidin-1-yl)-[1,3,5]triazine-2-amine], the MIC was less than 64 µg/mL.

As to `Cc1cc(Nc2nc(N3CCCCC3)nc(N3CCCCC3)n2)ccc1N1C(=O)c2ccc(Cl)cc2C1=O.Cl` [N-[4-(5-chloro-1,3-dioxo-1,3-dihydro-isoindol-22-yl)-3-methyl-phenyl]-4,6-Bis-((3R,5S)-3,5-diamino-piperidin-1-yl)-[1,3,5]triazine-2-amine], the MIC was less than 64 µg/mL.

On to `Cl.O=[N+]([O-])c1ccc(S(=O)(=O)c2ccc(Nc3nc(N4CCCCC4)nc(N4CCCCC4)n3)cc2)cc1` [N-[4-((2,4-dimethoxy-benzoylamino)-3-hydroxy-phenyl]-4,6-Bis-((3R,5S)-3,5-diamino-piperidin-1-yl)-[1,3,5]triazine-2-amine], for which the MIC is less than 16 µg/mL.

`CNC(=N)Nc1ccc(Nc2nc(C3CCCCC3)nc(N3CCCCC3)n2)cc1.Cl` [N-[4-(N-methyl-quanidino)-phenyl]-4,6-Bis-((3R,5S)-3,5-diamino-piperidin-1-yl)-[1,3,5]triazine-2-amine]: the MIC is greater than 64 µg/mL.

As to `Cl.NC(=O)CNc1nc(N2C[C@H](N)C[C@H](N)C2)nc(N2C[C@H](N)C[C@H](N)C2)n1` [N-carbamoylmethyl-4,6-Bis-((3R,5S)-3,5-diamino-piperidin-1-yl)-[1,3,5]triazine-2-amine], the MIC was greater than 64 µg/mL.

The same assay, now with this note: Escherichia coli, 18 h, read-out: Potency (MIC).
`N[C@@H]1C[C@H](N)CN(c2nc(Nc3ccc(C(=O)Nc4ccc(Cl)cc4)c(O)c3)nc(N3C[C@H](N)C[C@H](N)C3)n2)C1` [N-[4-(4-chloro-phenylcarbamoyl)-3-hydroxy-phenyl]-4,6-Bis-((3R,5S)-3,5-diamino-piperidin-1-yl)-[1,3,5]triazine-2-amine]: the MIC is less than 64 µg/mL.

Consider `N#Cc1ccc(NC(=O)c2ccc(Nc3nc(N4C[C@H](N)C[C@H](N)C4)nc(N4C[C@H](N)C[C@H](N)C4)n3)cc2O)cc1` [N-[4-(4-cyano-phenylcarbamoyl)-3-hydroxy-phenyl]-4,6-Bis-((3R,5S)-3,5-diamino-piperidin-1-yl)-[1,3,5]triazine-2-amine], for which the MIC was less than 64 µg/mL.

Turning to `CCCCCCCCCC(=O)Nc1ccc(S(=O)(=O)Nc2ccc(Nc3nc(N4C[C@H](N)C[C@H](N)C4)nc(N4C[C@H](N)C[C@H](N)C4)n3)cc2O)cc1` [N-[4-(4-decanoylamino-benzenesulfonylamino)-3-hydroxy-phenyl]-4,6-Bis-((3R,5S)-3,5-diamino-piperidin-1-yl)-[1,3,5]triazine-2-amine], the MIC is less than 16 µg/mL.

Consider `CN(C)c1ccc(C(=O)Nc2ccc(Nc3nc(N4C[C@H](N)C[C@H](N)C4)nc(N4C[C@H](N)C[C@H](N)C4)n3)cc2O)c(O)c1` [N-[4-(4-dimethylamino-2-hydroxy-benzoylamino)-3-hydroxy-phenyl]-4,6-Bis-((3R,5S)-3,5-diamino-piperidin-1-yl)-[1,3,5]triazine-2-amine], for which the MIC was less than 16 µg/mL.

On to `CN(C)c1ccc(C(=O)Nc2ccc(Nc3nc(N4C[C@H](N)C[C@H](N)C4)nc(N4C[C@H](N)C[C@H](N)C4)n3)cc2)c(O)c1` [N-[4-(4-dimethylamino-2-hydroxy-benzoylamino)-phenyl]-4,6-Bis-((3R,5S)-3,5-diamino-piperidin-1-yl)-[1,3,5]triazine-2-amine], for which the MIC was less than 16 µg/mL.

Take `N[C@@H]1C[C@H](N)CN(c2nc(Nc3ccc(NC(=O)c4ccc(F)cc4O)c(O)c3)nc(N3C[C@H](N)C[C@H](N)C3)n2)C1` [N-[4-(4-fluoro-2-hydroxy-benzoylamino)-3-hydroxy-phenyl]-4,6-Bis-((3R,5S)-3,5-diamino-piperidin-1-yl)-[1,3,5]triazine-2-amine]: the MIC was less than 16 µg/mL.

Regarding `N[C@@H]1C[C@H](N)CN(c2nc(Nc3ccc(NC(=O)c4ccc(F)cc4O)cc3)nc(N3C[C@H](N)C[C@H](N)C3)n2)C1` [N-[4-(4-fluoro-2-hydroxy-benzoylamino)-phenyl]-4,6-Bis-((3R,5S)-3,5-diamino-piperidin-1-yl)-[1,3,5]triazine-2-amine], the MIC was less than 16 µg/mL.

`N[C@@H]1C[C@H](N)CN(c2nc(Nc3ccc(C(=O)Nc4ccc(F)cc4)c(O)c3)nc(N3C[C@H](N)C[C@H](N)C3)n2)C1` [N-[4-(4-fluoro-phenylcarbamoyl)-3-hydroxy-phenyl]-4,6-Bis-((3R,5S)-3,5-diamino-piperidin-1-yl)-[1,3,5]triazine-2-amine]: the MIC is less than 16 µg/mL.

For `Cc1ccnc(NS(=O)(=O)c2ccc(Nc3nc(N4C[C@H](N)C[C@H](N)C4)nc(N4C[C@H](N)C[C@H](N)C4)n3)cc2)n1` [N-[4-(4-methyl-pyrimidin-2-ylsulfamoyl)-phenyl]-4,6-Bis-((3R,5S)-3,5-diamino-piperidin-1-yl)-[1,3,5]triazine-2-amine], the MIC is greater than 64 µg/mL.

In the case of `N[C@@H]1C[C@H](N)CN(c2nc(Nc3ccc(S(=O)(=O)c4ccc([N+](=O)[O-])cc4)cc3)nc(N3C[C@H](N)C[C@H](N)C3)n2)C1` [N-[4-(4-nitro-benzenesulfonyl)-phenyl]-4,6-Bis((3R,5S)-3,5-diamino-piperidin-1-yl)-[1,3,5]triazine-2-amine], the MIC was less than 64 µg/mL.

For `N[C@@H]1C[C@H](N)CN(c2nc(Nc3ccc(C(=O)N4CCc5cc(Br)ccc54)c(O)c3)nc(N3C[C@H](N)C[C@H](N)C3)n2)C1` [N-[4-(5-bromo-2,3-dihydro-indole-1-carbonyl)-3-hydroxy-phenyl]-4,6-Bis-((3R,5S)-3,5-diamino-piperidin-1-yl)-[1,3,5]triazine-2-amine], the MIC was less than 16 µg/mL.

`N[C@@H]1C[C@H](N)CN(c2nc(Nc3ccc(NC(=O)c4cc(Br)ccc4O)c(O)c3)nc(N3C[C@H](N)C[C@H](N)C3)n2)C1` [N-[4-(5-bromo-2-hydroxy-benzoylamino)-3-hydroxy-phenyl]-4,6-Bis-((3R,5S)-3,5-diamino-piperidin-1-yl)-[1,3,5]triazine-2-amine]: the MIC was less than 16 µg/mL.

For `N[C@@H]1C[C@H](N)CN(c2nc(Nc3ccc(NC(=O)c4cc(Br)ccc4O)cc3)nc(N3C[C@H](N)C[C@H](N)C3)n2)C1` [N-[4-(5-bromo-2-hydroxy-benzoylamino)-phenyl]-4,6-Bis-((3R,5S)-3,5-diamino-piperidin-1-yl)-[1,3,5]triazine-2-amine], the MIC is less than 16 µg/mL.

As for `Cc1ccc2nc(-c3ccc(Nc4nc(N5C[C@H](N)C[C@H](N)C5)nc(N5C[C@H](N)C[C@H](N)C5)n4)cc3)sc2c1` [N-[4-(6-methyl-benzothiazol-2-yl)-phenyl]-4,6-Bis-((3R,5S)-3,5-diamino-piperidin-1-yl)-[1,3,5]triazine-2-amine], the MIC was less than 16 µg/mL.

With `N[C@@H]1C[C@H](N)CN(c2nc(Nc3ccc(C(=O)Nc4ccc5c(c4)OCO5)c(O)c3)nc(N3C[C@H](N)C[C@H](N)C3)n2)C1` [N-[4-(benzo[1,3]dioxol-5-ylcarbamoyl)-3-hydroxy-phenyl]-4,6-Bis-((3R,5S)-3,5-diamino-piperidin-1-yl)-[1,3,5]triazine-2-amine], the MIC is less than 16 µg/mL.

As for `N[C@@H]1C[C@H](N)CN(c2nc(Nc3ccc(C(=O)Nc4ccc(-c5ccccc5)cc4)c(O)c3)nc(N3C[C@H](N)C[C@H](N)C3)n2)C1` [N-[4-(biphenyl-4-ylcarbamoyl)-3-hydroxy-phenyl]-4,6-Bis-((3R,5S)-3,5-diamino-piperidin-1-yl)-[1,3,5]triazine-2-amine], the MIC is less than 16 µg/mL.

Regarding `CCN(c1ccc(Nc2nc(N3C[C@H](N)C[C@H](N)C3)nc(N3C[C@H](N)C[C@H](N)C3)n2)cc1)C(C)C` [N-[4-(ethyl-isopropyl-amino)-phenyl]-4,6-Bis-((3R,5S)-3,5-diamino-piperidin-1-yl)-[1,3,5]triazine-2-amine], the MIC is greater than 64 µg/mL.

Regarding `N[C@@H]1C[C@H](N)CN(c2nc(Nc3ccc(S(=O)(=O)Nc4ccccn4)cc3)nc(N3C[C@H](N)C[C@H](N)C3)n2)C1` [N-[4-(pyridin-2-ylsulfamoyl)-phenyl]-4,6-Bis-((3R,5S)-3,5-diamino-piperidin-1-yl)-[1,3,5]triazine-2-amine], the MIC was greater than 64 µg/mL.

For `N[C@@H]1C[C@H](N)CN(c2nc(NCc3ccc4c(c3)OCO4)nc(N3C[C@H](N)C[C@H](N)C3)n2)C1` [N-benzo[1,3]dioxol-5-ylmethyl-4,6-Bis-((3R,5S)-3,5-diamino-piperidin-1-yl)-[1,3,5]triazine-2-amine], the MIC was greater than 64 µg/mL.

In the case of `N[C@@H]1C[C@H](N)CN(c2nc(Nc3nc4ccccc4s3)nc(N3C[C@H](N)C[C@H](N)C3)n2)C1` [N-benzothiazol-2-yl-4,6-Bis-((3R,5S)-3,5-diamino-piperidin-1-yl)-[1,3,5]triazine-2-amine], the MIC was less than 64 µg/mL.

For the molecule `N[C@@H]1C[C@H](N)CN(c2nc(Nc3ccc(-c4ccccc4)cc3)nc(N3C[C@H](N)C[C@H](N)C3)n2)C1` [N-biphenyl-4-yl-4,6-Bis-((3R,5S)-3,5-diamino-piperidin-1-yl)-[1,3,5]triazine-2-amine], the MIC is less than 64 µg/mL.

For `N[C@@H]1C[C@H](N)CN(c2nc(NCc3ccc(-c4ccccc4)cc3)nc(N3C[C@H](N)C[C@H](N)C3)n2)C1` [N-biphenyl-4-ylmethyl-4,6-Bis-((3R,5S)-3,5-diamino-piperidin-1-yl)-[1,3,5]triazine-2-amine], the MIC was less than 64 µg/mL.

The values are drawn from patent publication US7223759B2, “Antibacterial 3,5-diaminopiperidine-substituted aromatic and heteroaromatic compounds” (Anadys Pharmaceuticals, Inc., priority 2003, dated 2007).
